Test system: adult male Wistar rats
Conditions: rat, in vivo
Description: In vivo cardiac biocompatibility of PGSU-SF films All surgical procedures were approved by the IACUC of the Children's Hospital Boston and performed according to the NIH Guidelines for the Care and Use of Laboratory Animals Briefly, adult male Wistar rats (Charles River Laboratories, Wilmington, Mass.) were anesthetized with an intraperitoneal injection of ketamine (100 mg/kg) and xylazine (10 mg/kg), followed by intratracheal intubation. Rats were ventilated with a small animal respirator (Harvard Apparatus, Holliston, Mass.), and anesthesia was maintained with 0.5 to 1.0% isofluorane and 100% oxygen. The heart was accessed through an anterior right-sided thoracotomy, followed by the removal of the pericardial sac. A 1 mm thick and 7 mm in diameter porous PGSU-SF 1:0.3 patch was sutured on the left ventricle (LV) epicardial surface of the rat heart using three 7-0 polypropylene monofilament stitches. The chest wall was closed in layers, and the thoracic cavity evacuated with a 18-gauge intravenous catheter Animals were sacrificed at 1 and 4 weeks (n=4 per time point) after the surgical procedure with CO2, followed by immediate excision of the heart. Tissue sections transverse to the patch and heart surface were stained with Hematoxylin and Eosin stain (H&E). […]

cardiac function (echocardiography): No changes
chest adhesions: Moderate
Substance: poly (glycerol sebacate urethane) [PGSU-SF 1:0.3]
